Drawing on article PMC9317016, “Oleocanthal Attenuates Metastatic Castration-Resistant Prostate Cancer Progression and Recurrence by Targeting SMYD2” (Cancers, 2022), this text covers inhibition for one compound.

This test addresses SMYD2 (Homo sapiens, UniProt Q9NRG4). As to the kind of experiment: scintillation proximity methyltransferase assay, 3H-methyl incorporation into p53 peptide ([…]), single […] dose. The test is classed as biochemical. In general terms: In a scintillation proximity assay essentially only radioactivity close to the scintillant gives light.

Chain of SMYD2 (Q9NRG4 whole entry): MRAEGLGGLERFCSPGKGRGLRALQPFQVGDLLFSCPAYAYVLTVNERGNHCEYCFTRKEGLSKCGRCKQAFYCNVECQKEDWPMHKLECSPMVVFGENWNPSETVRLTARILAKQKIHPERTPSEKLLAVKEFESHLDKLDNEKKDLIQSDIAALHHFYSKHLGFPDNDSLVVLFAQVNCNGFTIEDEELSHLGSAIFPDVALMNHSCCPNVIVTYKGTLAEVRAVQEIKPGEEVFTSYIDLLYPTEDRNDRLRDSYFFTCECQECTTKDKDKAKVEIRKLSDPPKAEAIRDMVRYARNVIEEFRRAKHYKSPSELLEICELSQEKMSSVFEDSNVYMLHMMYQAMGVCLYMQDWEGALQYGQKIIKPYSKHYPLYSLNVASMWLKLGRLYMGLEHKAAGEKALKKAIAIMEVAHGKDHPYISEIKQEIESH

By inhibition is commonly meant the drop in the measured response relative to a control, in per cent. Compound `C/C=C(/C=O)[C@@H](CC=O)CC(=O)OCCc1ccc(O)cc1` [OC, S-(-)-oleocanthal] yielded an inhibition at 10 µM of 90.8%.
